Consider 24 molecules from patent US9663460B2, “Sulfur derivatives as chemokine receptor modulators” (ALLERGAN, INC., priority 2010, dated 2017).

What is called pIC50 is the IC50 on a negative log10 scale, so that one unit is a factor of ten.

pIC50: −log10 of the molar value.

CCR2, sequence (P41597 whole entry, species assumed): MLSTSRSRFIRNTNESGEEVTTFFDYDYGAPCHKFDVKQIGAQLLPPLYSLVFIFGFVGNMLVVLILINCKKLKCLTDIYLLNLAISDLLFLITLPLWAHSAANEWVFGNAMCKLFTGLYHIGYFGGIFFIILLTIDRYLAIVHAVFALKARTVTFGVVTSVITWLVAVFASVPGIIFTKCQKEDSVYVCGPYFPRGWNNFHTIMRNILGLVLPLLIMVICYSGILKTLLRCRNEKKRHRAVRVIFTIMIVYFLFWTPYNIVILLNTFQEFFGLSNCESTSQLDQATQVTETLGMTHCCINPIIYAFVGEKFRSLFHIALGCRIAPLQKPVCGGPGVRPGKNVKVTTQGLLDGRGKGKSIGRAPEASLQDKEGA

The experiment concerns the target CCR2 (Homo sapiens (Human), UniProt P41597). Put plainly: Calcium activity assayed on the FLIPR Tetra in HEK-Gqi5 cells stably expressing CCR2. Type of experiment: cell-based. To be noted: FLIPR Tetra calcium assay.
For the molecule `O=S(=O)(Nc1cc(Cl)ccc1[S+]([O-])Cc1cccc[n+]1[O-])c1cc2ccccc2o1` (centres unmarked) [N-(5-chloro-2-{[(1-oxidopyridin-2-yl)methyl]sulfinyl}phenyl)-1-benzofuran-2-sulfonamide], the “CCR2 % ANTAGONISM” value is recorded as 101% and the pIC50 was 6.07.

On to `O=S(=O)(Cc1cccc[n+]1[O-])c1ccc(Cl)cc1NS(=O)(=O)c1cc2ccccc2o1` [N-(5-chloro-2-{[(1-oxidopyridin-2-yl)methyl]sulfonyl}phenyl)-1-benzofuran-2-sulfonamide], for which the “CCR2 % ANTAGONISM” value is 102% and the pIC50 is 6.18.

`O=S(=O)(Nc1cc(Cl)ccc1[S+]([O-])Cc1ccc[n+]([O-])c1)c1cc2ccccc2o1` (centres unmarked) [N-(5-chloro-2-{[(1-oxidopyridin-3-yl)methyl]sulfinyl}phenyl)-1-benzofuran-2-sulfonamide]: the “CCR2 % ANTAGONISM” value worked out at 101% and the pIC50 was 6.19.

Take `O=S(=O)(Cc1ccc[n+]([O-])c1)c1ccc(Cl)cc1NS(=O)(=O)c1cc2ccccc2o1` [N-(5-chloro-2-{[(1-oxidopyridin-3-yl)methyl]sulfonyl}phenyl)-1-benzofuran-2-sulfonamide]: the “CCR2 % ANTAGONISM” value worked out at 81% and the pIC50 was 5.76.

As to `CCCn1cnc(C[S+]([O-])c2ccc(Cl)cc2NS(=O)(=O)c2cc3ccccc3o2)c1` (centres unmarked) [N-(5-chloro-2-{[(1-propyl-1H-imidazol-4-yl)methyl]sulfinyl}phenyl)-1-benzofuran-2-sulfonamide], the “CCR2 % ANTAGONISM” value was 93% and the pIC50 is 6.09.

On to `CCCn1cnc(CS(=O)(=O)c2ccc(Cl)cc2NS(=O)(=O)c2cc3ccccc3o2)c1` [N-(5-chloro-2-{[(1-propyl-1H-imidazol-4-yl)methyl]sulfonyl}phenyl)-1-benzofuran-2-sulfonamide], for which the “CCR2 % ANTAGONISM” value came out at 98% and the pIC50 is 6.09.

For the molecule `CCCn1cnc(CSc2ccc(Cl)cc2NS(=O)(=O)c2cc3ccccc3o2)c1` [N-(5-chloro-2-{[(1-propyl-1H-imidazol-4-yl)methyl]thio}phenyl)-1-benzofuran-2-sulfonamide], the “CCR2 % ANTAGONISM” value stood at 79% and the pIC50 is 5.89.

Take `O=c1[nH]cc(C[S+]([O-])c2ccc(Cl)cc2NS(=O)(=O)c2cc3ccccc3o2)c(=O)[nH]1` (centres unmarked) [N-(5-chloro-2-{[(2,4-dioxo-1,2,3,4-tetrahydropyrimidin-5-yl)methyl]sulfinyl}phenyl)-1-benzofuran-2-sulfonamide]: the “CCR2 % ANTAGONISM” value was determined as 21% and the pIC50 is 5.51.

Turning to `O=c1[nH]cc(CS(=O)(=O)c2ccc(Cl)cc2NS(=O)(=O)c2cc3ccccc3o2)c(=O)[nH]1` [N-(5-chloro-2-{[(2,4-dioxo-1,2,3,4-tetrahydropyrimidin-5-yl)methyl]sulfonyl}phenyl)-1-benzofuran-2-sulfonamide], the “CCR2 % ANTAGONISM” value was found to be 0%.

For `O=c1cc(C[S+]([O-])c2ccc(Cl)cc2NS(=O)(=O)c2cc3ccccc3o2)[nH]c(=O)[nH]1` (centres unmarked) [N-(5-chloro-2-{[(2,6-dioxo-1,2,3,6-tetrahydropyrimidin-4-yl)methyl]sulfinyl}phenyl)-1-benzofuran-2-sulfonamide], the “CCR2 % ANTAGONISM” value came to 62%.

As for `O=c1cc(CS(=O)(=O)c2ccc(Cl)cc2NS(=O)(=O)c2cc3ccccc3o2)[nH]c(=O)[nH]1` [N-(5-chloro-2-{[(2,6-dioxo-1,2,3,6-tetrahydropyrimidin-4-yl)methyl]sulfonyl}phenyl)-1-benzofuran-2-sulfonamide], the “CCR2 % ANTAGONISM” value is 70%.

`O=c1cc(CSc2ccc(Cl)cc2NS(=O)(=O)c2cc3ccccc3o2)[nH]c(=O)[nH]1` [N-(5-chloro-2-{[(2,6-dioxo-1,2,3,6-tetrahydropyrimidin-4-yl)methyl]thio}phenyl)-1-benzofuran-2-sulfonamide]: the “CCR2 % ANTAGONISM” value amounted to 98% and the pIC50 is 5.63.

For `O=S(=O)(Nc1cc(Cl)ccc1[S+]([O-])Cc1cccnc1F)c1cc2ccccc2o1` (centres unmarked) [N-(5-chloro-2-{[(2-fluoropyridin-3-yl)methyl]sulfinyl}phenyl)-1-benzofuran-2-sulfonamide], the “CCR2 % ANTAGONISM” value was 95% and the pIC50 was 7.10.

As for `O=S(=O)(Cc1cccnc1F)c1ccc(Cl)cc1NS(=O)(=O)c1cc2ccccc2o1` [N-(5-chloro-2-{[(2-fluoropyridin-3-yl)methyl]sulfonyl}phenyl)-1-benzofuran-2-sulfonamide], the “CCR2 % ANTAGONISM” value came out at 88% and the negative-log IC50 (pIC50) is 7.10.

As to `O=S(=O)(Nc1cc(Cl)ccc1SCc1cccnc1F)c1cc2ccccc2o1` [N-(5-chloro-2-{[(2-fluoropyridin-3-yl)methyl]thio}phenyl)-1-benzofuran-2-sulfonamide], the “CCR2 % ANTAGONISM” value worked out at 76% and the pIC50 was 7.03.

In the case of `O=C1NCC(C[S+]([O-])c2ccc(Cl)cc2NS(=O)(=O)c2cc3ccccc3o2)O1` (centres unmarked) [N-(5-chloro-2-{[(2-oxo-1,3-oxazolidin-5-yl)methyl]sulfinyl}phenyl)-1-benzofuran-2-sulfonamide], the “CCR2 % ANTAGONISM” value is recorded as 79% and the pIC50 is 5.67.

As to `O=C1NCC(CS(=O)(=O)c2ccc(Cl)cc2NS(=O)(=O)c2cc3ccccc3o2)O1` (centres unmarked) [N-(5-chloro-2-{[(2-oxo-1,3-oxazolidin-5-yl)methyl]sulfonyl}phenyl)-1-benzofuran-2-sulfonamide], the “CCR2 % ANTAGONISM” value worked out at 98% and the pIC50 was 5.59.

For `O=[N+]([O-])c1cc(C[S+]([O-])c2ccc(Cl)cc2NS(=O)(=O)c2cc3ccccc3o2)n[nH]1` (centres unmarked) [N-(5-chloro-2-{[(5-nitro-1H-pyrazol-3-yl)methyl]sulfinyl}phenyl)-1-benzofuran-2-sulfonamide], the “CCR2 % ANTAGONISM” value is 94% and the pIC50 was 6.12.

On to `O=[N+]([O-])c1cc(CSc2ccc(Cl)cc2NS(=O)(=O)c2cc3ccccc3o2)n[nH]1` [N-(5-chloro-2-{[(5-nitro-1H-pyrazol-3-yl)methyl]thio}phenyl)-1-benzofuran-2-sulfonamide], for which the “CCR2 % ANTAGONISM” value is given as 91%.

On to `O=S(=O)(Nc1cc(Cl)ccc1[S+]([O-])Cc1ccccc1)c1cc2ccccc2o1` (centres unmarked) [N-[2-(benzylsulfinyl)-5-chlorophenyl]-1-benzofuran-2-sulfonamide], for which the “CCR2 % ANTAGONISM” value is 85% and the negative logarithm of the IC50 (pIC50) is 7.57.

Consider `N#Cc1ccc([S+]([O-])Cc2ccccc2)c(NS(=O)(=O)c2cc3ccccc3o2)c1` (centres unmarked) [N-[2-(benzylsulfinyl)-5-cyanophenyl]-1-benzofuran-2-sulfonamide], for which the “CCR2 % ANTAGONISM” value stood at 105% and the pIC50 is 7.30.

With `O=S(=O)(Cc1ccccc1)c1ccc(Cl)cc1NS(=O)(=O)c1cc2ccccc2o1` [N-[2-(benzylsulfonyl)-5-chlorophenyl]-1-benzofuran-2-sulfonamide], the “CCR2 % ANTAGONISM” value came to 90% and the negative-log IC50 (pIC50) was 7.47.

Take `N#Cc1ccc(S(=O)(=O)Cc2ccccc2)c(NS(=O)(=O)c2cc3ccccc3o2)c1` [N-[2-(benzylsulfonyl)-5-cyanophenyl]-1-benzofuran-2-sulfonamide]: the “CCR2 % ANTAGONISM” value was found to be 95% and the pIC50 is 7.25.

As to `O=S(=O)(Nc1cc(Cl)ccc1SCc1ccccc1)c1cc2ccccc2o1` [N-[2-(benzylthio)-5-chlorophenyl]-1-benzofuran-2-sulfonamide], the “CCR2 % ANTAGONISM” value came out at 90% and the negative logarithm of the IC50 (pIC50) is 6.89.
